How the values were obtained:
Test in all cases: relative viability (nuclei count vs DMSO), 5 days (fraction); higher = more cells survive
[1] = compound: C1CSC2=C(C(=O)N1)SC3=C2C=C(C=C3)O [kb NB 142-70] + C[C@]1(O)C[C@@H](c2nc(-c3ccc4ccc(-c5ccccc5)nc4c3)c3c(N)nccn32)C1 [Linsitinib] (partner 1 µM)
Procedure, shortened: (§1)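 Values are medians from duplicate plates. Each reflects relative viability, defined as the nuclei count of treated wells over that of vehicle wells. Lung cancer cell lines in 1536-well plates were pin-tool dosed one day after seeding with one drug alone or with a fixed anchor-drug dose plus five library-drug doses (not always all listed) in √10 steps, then fixed, stained and imaged at 4× after 5 days.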

[2] = compound: C1CSC2=C(C(=O)N1)SC3=C2C=C(C=C3)O [kb NB 142-70] + CC(=O)c1c(C)c2cnc(Nc3ccc(N4CCNCC4)cn3)nc2n(C2CCCC2)c1=O [Palbociclib] (partner 0.5 µM)
Procedure, shortened: as §1

[3] = compound: C1CSC2=C(C(=O)N1)SC3=C2C=C(C=C3)O [kb NB 142-70] + CC1(C)CCC(c2ccc(Cl)cc2)=C(CN2CCN(c3ccc(C(=O)NS(=O)(=O)c4ccc(N[C@H](CCN5CCOCC5)CSc5ccccc5)c(S(=O)(=O)C(F)(F)F)c4)cc3)CC2)C1 [Navitoclax] (partner 0.5 µM)
Procedure, shortened: as §1

[4] = compound: C1CSC2=C(C(=O)N1)SC3=C2C=C(C=C3)O [kb NB 142-70] + C[C@@H](Oc1cc(-c2cnn(C3CCNCC3)c2)cnc1N)c1c(Cl)ccc(F)c1Cl [Crizotinib] (partner 1 µM)
Procedure, shortened: as §1

[5] = compound: NCC(=O)Nc1ccc(-n2nc(C(F)(F)F)cc2-c2ccc3c(ccc4ccccc43)c2)cc1 + C[C@@H](Oc1cc(-c2cnn(C3CCNCC3)c2)cnc1N)c1c(Cl)ccc(F)c1Cl [Crizotinib] (partner 1 µM)
Procedure, shortened: as §1

Row | Cell Line | relative viability ([1]; first compound 0.1 µM) | relative viability ([1]; first compound 1 µM) | relative viability ([1]; first compound 3.162 µM) | relative viability ([2]; first compound 0.1 µM) | relative viability ([2]; first compound 1 µM) | relative viability ([2]; first compound 3.162 µM) | relative viability ([3]; first compound 0.1 µM) | relative viability ([3]; first compound 1 µM) | relative viability ([3]; first compound 3.162 µM) | relative viability ([4]; first compound 0.1 µM) | relative viability ([4]; first compound 1 µM) | relative viability ([4]; first compound 3.162 µM) | relative viability ([5]; first compound 0.02 µM) | relative viability ([5]; first compound 0.06325 µM) | relative viability ([5]; first compound 0.2 µM) | relative viability ([5]; first compound 0.6325 µM) | relative viability ([5]; first compound 2 µM)
1 | NCI-H1666 | 0.858 | 0.831 | 0.483 | 0.581 | 0.591 | 0.693 | 1.08 | 1.04 | 0.858 | 1.09 | 0.871 | 0.676 | 1 | 0.904 | 1.16 | 0.854 | 0.982
2 | NCI-H1734 | 0.813 | 0.734 | 0.553 | 0.365 | 0.363 | 0.279 | 0.794 | 0.706 | 0.431 | 0.68 | 0.652 | 0.383 | 0.801 | 0.611 | 0.788 | 0.739 | 0.683
3 | NCI-H1755 | 1 | 0.991 | 1.06 | 0.466 | 0.411 | 0.44 | 0.996 | 1.01 | 1.05 | 0.852 | 0.923 | 0.915 | 0.955 | 0.863 | 0.904 | 0.891 | 0.862
4 | NCI-H1792 | 0.598 | 0.616 | 0.688 | 0.586 | 0.722 | 0.836 | 0.604 | 0.619 | 0.644 | 0.995 | 1.01 | 0.914 | 1.01 | 1.02 | 0.976 | 1 | 0.945
5 | NCI-H1915 | 1.11 | 1.11 | 0.716 | 0.498 | 0.52 | 0.343 | 0.793 | 0.739 | 0.519 | 0.887 | 0.915 | 0.481 | 0.864 | 0.873 | 0.871 | 0.83 | 0.898
6 | NCI-H1944 | 1.17 | 1.24 | 1.18 | 0.334 | 0.358 | 0.376 | 1.07 | 1.05 | 0.973 | 1.02 | 1.31 | 1.23 | 1.04 | 1.05 | 1.11 | 1.06 | 1.13
7 | NCI-H1975 | 0.946 | 1.11 | 0.519 | 0.599 | 0.662 | 0.435 | 1.14 | 1.15 | 0.761 | 0.899 | 0.959 | 0.842 | 0.96 | 0.954 | 0.954 | 0.906 | 0.914
8 | NCI-H1993 | 0.792 | 0.715 | 0.67 | 0.688 | 0.583 | 0.638 | 0.941 | 0.82 | 0.799 | 0.842 | 0.892 | 0.854 | 0.939 | 0.987 | 0.822 | 1.03 | 0.902
9 | NCI-H2009 | 1.26 | 1.26 | 0.955 | 0.286 | 0.304 | 0.285 | 1.13 | 1.22 | 0.889 | 1 | 1.12 | 0.652 | 1.06 | 1.03 | 1.07 | 1.09 | 1.04
10 | NCI-H2023 | 0.698 | 0.673 | 0.396 | 0.389 | 0.379 | 0.257 | 0.983 | 1 | 0.644 | 0.699 | 0.761 | 0.551 | 0.737 | 0.751 | 0.619 | 0.703 | 0.702
11 | NCI-H2085 | 0.807 | 0.515 | 0.599 | 0.466 | 0.452 | 0.367 | 1.18 | 1.05 | 0.738 | 0.754 | 0.814 | 0.663 | 0.862 | 0.901 | 0.938 | 0.865 | 0.819
12 | NCI-H2087 | 1.05 | 0.956 | 0.915 | 0.282 | 0.252 | 0.215 | 1.06 | 1.11 | 0.771 | 0.562 | 0.903 | 0.868 | 0.779 | 0.866 | 0.889 | 0.906 | 0.885
13 | NCI-H2126 | 0.702 | 0.729 | 0.681 | 0.364 | 0.373 | 0.345 | 0.853 | 0.843 | 0.849 | 1.04 | 1.06 | 0.983 | 1 | 1 | 1.05 | 1.01 | 1.04
14 | NCI-H2228 | 0.525 | 0.872 | 0.629 | 0.819 | 0.719 | 0.446 | 0.853 | 0.992 | 0.244 | 0.519 | 0.561 | 0.27 | 0.56 | 0.652 | 0.603 | 0.544 | 0.493
15 | NCI-H2347 | 0.975 | 1.03 | 1.03 | 0.438 | 0.439 | 0.488 | 0.867 | 0.77 | 0.608 | 0.685 | 0.707 | 0.594 | 0.755 | 0.768 | 0.822 | 0.813 | 0.688
16 | NCI-H2405 | 0.969 | 0.834 | 0.641 | 0.552 | 0.563 | 0.499 | 0.966 | 0.863 | 0.679 | 0.796 | 0.885 | 0.717 | 0.916 | 0.927 | 0.914 | 0.847 | 0.881
17 | NCI-H3122 | 1.03 | 1.01 | 0.924 | 0.181 | 0.199 | 0.187 | 0.987 | 1.04 | 0.972 | 0.268 | 0.242 | 0.192 | 0.275 | 0.287 | 0.266 | 0.289 | 0.279
18 | PC-3 [JPC-3] | 0.971 | 0.98 | 0.881 | 0.516 | 0.54 | 0.534 | 0.745 | 0.807 | 0.871 | 0.985 | 1.05 | 0.916 | 1.01 | 1.03 | 0.996 | 0.959 | 0.99
